ChEMBL document CHEMBL3885861, “Open TG-GATES”

Species on record: Rattus norvegicus
Assay: Open TG-GATES - Regimen: Single
Format: toxicity, organism-based, Sprague-Dawley
Design: regimen Single, gender Male, age 6 weeks
Conditions: in vivo, sc, 2 mg/kg, route subcutaneous injection, dose 2000 ug/Kg, dose level High; for APTT / Bas / Eos / Fbg / Hb / Ht / Lym / MCH / MCHC / MCV / Mono / Neu / PT / Plat / RBC / Ret / WBC: tissue Blood; for KIDNEY_L / KIDNEY_R / KIDNEY_TOTAL: tissue Kidney; for LIVER: tissue Liver; for A/G / ALP / ALT / AST / BUN / CRE / Ca / Cl / DBIL / GLC / IP / K / LDH / Na / PL / RALB / TBIL / TC / TG / TP / gamma-GTP: tissue Plasma

## CC(=O)O.N=C(N)NCCC[C@@H](NC(=O)[C@@H]1CCCN1C(=O)[C@@H]1CSSCCC(=O)N[C@@H](Cc2ccc(O)cc2)C(=O)N[C@@H](Cc2ccccc2)C(=O)N[C@@H](CCC(N)=O)C(=O)N[C@@H](CC(N)=O)C(=O)N1)C(=O)NCC(N)=O [DESMOPRESSIN ACETATE]
3 h
  TERMINAL_BW: 202.2 g
  APTT: 18 s
  Bas: 0%
  Eos: 1.6%
  Fbg: 237.8 mg/dL
  Hb: 12.9 g/dL
  Ht: 39.6%
  Lym: 64.8%
  MCH: 21.3 pg
  MCHC: 32.6%
  MCV: 65.5 fL
  Mono: 10.6%
  Neu: 22.8%
  PT: 12.3 s
  Plat: 117.4 x10_4/uL
  RBC: 606.2 x10_4/ul
  Ret: 9.2%
  WBC: 85.4 x10_2/uL
  KIDNEY_L: 0.9 g
  KIDNEY_R: 1 g
  KIDNEY_TOTAL: 1.9 g
  LIVER: 9.5 g
  A/G: 2
  ALP: 1436 IU/L
  ALT: 38.6 IU/L
  AST: 70.8 IU/L
  BUN: 22.6 mg/dL
  CRE: 0.4 mg/dL
  Ca: 11.7 mg/dL
  Cl: 97 meq/L
  DBIL: 0.01 mg/dL
  GLC: 217 mg/dL
  IP: 9.5 mg/dL
  K: 4.6 meq/L
  LDH: 134.8 IU/L
  Na: 130.6 meq/L
  PL: 157.4 mg/dL
  RALB: 4 g/dL
  TBIL: 0.048 mg/dL
  TC: 82.4 mg/dL
  TG: 89 mg/dL
  TP: 5.9 g/dL
  gamma-GTP: 0.8 IU/L
6 h
  TERMINAL_BW: 204.1 g
  APTT: 18.4 s
  Bas: 0%
  Eos: 1.2%
  Fbg: 247.9 mg/dL
  Hb: 13.2 g/dL
  Ht: 40%
  Lym: 65.8%
  MCH: 21.8 pg
  MCHC: 33%
  MCV: 66 fL
  Mono: 11.8%
  Neu: 21%
  PT: 12.1 s
  Plat: 120.4 x10_4/uL
  RBC: 606.4 x10_4/ul
  Ret: 10.1%
  WBC: 106 x10_2/uL
  KIDNEY_L: 1 g
  KIDNEY_R: 1 g
  KIDNEY_TOTAL: 2 g
  LIVER: 9.3 g
  A/G: 1.9
  ALP: 1390.6 IU/L
  ALT: 36 IU/L
  AST: 64 IU/L
  BUN: 31.6 mg/dL
  CRE: 0.4 mg/dL
  Ca: 11.1 mg/dL
  Cl: 96.2 meq/L
  DBIL: 0.016 mg/dL
  GLC: 211.2 mg/dL
  IP: 10.6 mg/dL
  K: 4.5 meq/L
  LDH: 122.2 IU/L
  Na: 131 meq/L
  PL: 157.4 mg/dL
  RALB: 3.9 g/dL
  TBIL: 0.084 mg/dL
  TC: 92.4 mg/dL
  TG: 49.4 mg/dL
  TP: 5.9 g/dL
  gamma-GTP: 1 IU/L
9 h
  TERMINAL_BW: 202.3 g
  APTT: 17.8 s
  Bas: 0%
  Eos: 1%
  Fbg: 249 mg/dL
  Hb: 12.8 g/dL
  Ht: 39.2%
  Lym: 74.4%
  MCH: 20.9 pg
  MCHC: 32.7%
  MCV: 63.9 fL
  Mono: 7.4%
  Neu: 17%
  PT: 12.5 s
  Plat: 124.6 x10_4/uL
  RBC: 613.2 x10_4/ul
  Ret: 8.9%
  WBC: 98.6 x10_2/uL
  KIDNEY_L: 1 g
  KIDNEY_R: 1 g
  KIDNEY_TOTAL: 2 g
  LIVER: 8.6 g
  A/G: 2.2
  ALP: 1194.8 IU/L
  ALT: 29.6 IU/L
  AST: 64.2 IU/L
  BUN: 31.8 mg/dL
  CRE: 0.3 mg/dL
  Ca: 11.1 mg/dL
  Cl: 98.6 meq/L
  DBIL: 0.018 mg/dL
  GLC: 197.4 mg/dL
  IP: 10.7 mg/dL
  K: 4.9 meq/L
  LDH: 129.4 IU/L
  Na: 132.8 meq/L
  PL: 137.6 mg/dL
  RALB: 3.8 g/dL
  TBIL: 0.08 mg/dL
  TC: 77.8 mg/dL
  TG: 40.6 mg/dL
  TP: 5.6 g/dL
  gamma-GTP: 0.4 IU/L
24 h
  TERMINAL_BW: 220.4 g
  APTT: 16.2 s
  Bas: 0%
  Eos: 1%
  Fbg: 236.7 mg/dL
  Hb: 12.6 g/dL
  Ht: 38.7%
  Lym: 66.8%
  MCH: 21.1 pg
  MCHC: 32.7%
  MCV: 64.6 fL
  Mono: 10.6%
  Neu: 21.2%
  PT: 12.4 s
  Plat: 121 x10_4/uL
  RBC: 599 x10_4/ul
  Ret: 9.6%
  WBC: 88.8 x10_2/uL
  KIDNEY_L: 1 g
  KIDNEY_R: 1 g
  KIDNEY_TOTAL: 2.1 g
  LIVER: 10.4 g
  A/G: 1.9
  ALP: 1283.2 IU/L
  ALT: 33.4 IU/L
  AST: 60 IU/L
  BUN: 20 mg/dL
  CRE: 0.3 mg/dL
  Ca: 11.1 mg/dL
  Cl: 103.6 meq/L
  DBIL: 0 mg/dL
  GLC: 195.2 mg/dL
  IP: 8.4 mg/dL
  K: 5.4 meq/L
  LDH: 128.4 IU/L
  Na: 136.4 meq/L
  PL: 150 mg/dL
  RALB: 3.5 g/dL
  TBIL: 0.014 mg/dL
  TC: 81.4 mg/dL
  TG: 110 mg/dL
  TP: 5.3 g/dL
  gamma-GTP: 1.4 IU/L
